In paper PMC6151961 (Journal of Enzyme Inhibition and Medicinal Chemistry, 2018):
Read-outs that look alike come from different tables or passages of the source.

How the values were obtained:
CA IX [1] = molecular target: T1, CA IX (Homo sapiens, UniProt Q16790); experiment: biochemical
CA IX [2] = molecular target: T1, CA IX; details: cited from earlier work
[3] = RP-LC chromatographic lipophilicity (logkw); type: physicochemical; details: chromatographic lipophilicity from gradient RP-LC, Luna RP-C18, water/acetonitrile with 0.1% formic acid, 30 °C
[4] = experimental value from the library Ki (IDs A…, B…), values equal log10 of Ki in nM, read-out: pKi (exp.) (converted)
[5] = observed Ki of library compounds (IDs A…, B…), ref ChEMBL and BindingDB, read-out: Ki
[6] = read-out: pKi (exp.) (converted)
[7] = library compounds with IDs A… and B…, from observed Ki (nM), read-out: pKi (exp.) (converted)
[8] = library compounds with IDs A… and B…, observed Ki, ref ChEMBL, BindingDB, read-out: Ki
[9] = experimental value used for the QSPR model, library compounds (IDs A…, B…), equals log10 of Ki in nM, read-out: pKi (exp.) (converted)

## C[C@@H](Sc1nc(-c2ccc(Cl)c(F)c2)c(C#N)c(=O)[nH]1)C(=O)Nc1ccc(S(N)(=O)=O)cc1 [A1157]
CA IX [1]; [4]
  Ki: 37 nM
CA IX [2]; [5]
  Ki: 37 nM

## NS(=O)(=O)OC[C@H]1O[C@H](O)[C@H](O)[C@@H](O)[C@H]1O [A1346]
CA IX [1]; [4]
  Ki: 61.9 nM
CA IX [2]; [5]
  Ki: 62 nM

## C[C@]12CC[C@@H](OS(N)(=O)=O)CC1=C[C@@H](O)[C@@H]1[C@@H]2CC[C@]2(C)C(=O)CC[C@@H]12 [A1368]
CA IX [1]
  Ki: 65 nM
CA IX [2]
  Ki: 65 nM

## NOS(=O)(=O)N[C@H]1C=C[C@H](O)[C@@H](CO)O1 [A1502]
CA IX [1]; [4]
  Ki: 84.9 nM
CA IX [2]; [5]
  Ki: 85 nM

## NOS(=O)(=O)N[C@H]1C=C[C@H](O)CO1 [A1544]
CA IX [1]; [6]
  Ki: 91 nM
CA IX [2]; read-out: Ki
  Ki: 91 nM

## COC(=O)[C@H]1C[C@H](OS(N)(=O)=O)CN1S(=O)(=O)[C@H]1O[C@H](COC(C)=O)[C@@H](OC(C)=O)[C@H](OC(C)=O)[C@H]1OC(C)=O [B0015]
CA IX [1]; [7]
  Ki: 2 nM
CA IX [2]; [8]
  Ki: 2 nM

## NS(=O)(=O)c1ccc(-n2cc(/C=N/Nc3nc(-c4cc5cc(Cl)ccc5oc4=O)cs3)c(-c3ccc(F)cc3)n2)cc1 [B0019]
CA IX [1]; [4]
  Ki: 2.5 nM
CA IX [2]; [5]
  Ki: 2.5 nM

## C[C@H](NC(=O)Nc1ccc(NS(N)(=O)=O)cc1)c1cccc2ccccc12 [B0045]
CA IX [1]; [7]
  Ki: 3.4 nM
CA IX [2]; [8]
  Ki: 3.4 nM

## NS(=O)(=O)c1ccc(-n2nnc(CS[C@H]3O[C@H](CO)[C@@H](O)[C@@H](O)[C@H]3O)c2I)cc1 [B0123]
CA IX [1]; [9]
  Ki: 6.5 nM
CA IX [2]; [5]
  Ki: 6.5 nM

## CC(=O)/N=C1\SC(S(N)(=O)=O)=N[C@@H]1C [B0187]
CA IX [1]; [6]
  Ki: 8.99 nM
CA IX [2]; read-out: Ki
  Ki: 9 nM

## CN(C)C1=CCN(c2ccncc2S(N)(=O)=O)C=C1 [B0189]
CA IX [1]; [9]
  Ki: 8.99 nM
CA IX [2]; [5]
  Ki: 9 nM

## Cc1ncc(-c2ccc(S(N)(=O)=O)s2)o1 [B0222]
CA IX [1]; [4]
  Ki: 11 nM
CA IX [2]; [5]
  Ki: 11 nM

## COc1ccc2c(c1)CCN(S(N)(=O)=O)[C@@H]2c1ccc(N)cc1 [B0230]
CA IX [1]; [7]
  Ki: 12 nM
CA IX [2]; [8]
  Ki: 12 nM

## CC(=O)OC[C@@H]1O[C@@H](NS(N)(=O)=O)C[C@@H](OC(C)=O)[C@@H]1OC(C)=O [B0263]
CA IX [1]; [6]
  Ki: 16 nM
CA IX [2]; read-out: Ki
  Ki: 16 nM

## Cc1ccc2c(c1)/C(=N/c1ccc(NC(=O)Nc3ccc(S(N)(=O)=O)cc3)cc1)C(=O)N2 [B0270]
CA IX [1]; [9]
  Ki: 17 nM
CA IX [2]; [5]
  Ki: 17 nM

## NS(=O)(=O)c1ccc(-n2cc(/C=N/Nc3nc(-c4cc5ccccc5oc4=O)cs3)c(-c3ccccc3)n2)cc1 [B0285]
CA IX [1]; [9]
  Ki: 20 nM
CA IX [2]; [5]
  Ki: 20 nM

## NS(=O)(=O)c1ccc(-n2cc(/C=N/Nc3nc(-c4cc5cc(Br)ccc5oc4=O)cs3)c(-c3ccccc3)n2)cc1 [B0298]
CA IX [1]; [6]
  Ki: 22 nM
CA IX [2]; read-out: Ki
  Ki: 22 nM

## NS(=O)(=O)c1ccc(N2C(=O)/C(=C\c3coc4ccccc4c3=O)N=C2c2ccccc2)cc1 [B0301]
CA IX [1]; [7]
  Ki: 23 nM
CA IX [2]; [8]
  Ki: 23 nM

## C/C(=N/Nc1ccc(S(N)(=O)=O)cc1)c1cc2cc(Br)ccc2oc1=O [B0309]
CA IX [1]; [6]
  Ki: 24 nM
CA IX [2]; read-out: Ki
  Ki: 24 nM

## CCOc1ccc(S(=O)(=O)N2CCOCC2)cc1-c1nnc2c(n1)c(C)nn2C [B0310]
CA IX [1]; [4]
  Ki: 24 nM
CA IX [2]; [5]
  Ki: 24 nM

## CCO[C@H]1Oc2ccccc2C(=O)[C@H]1/C=N\c1ccc(S(=O)(=O)Nc2cc(C)on2)cc1 [B0311]
CA IX [1]; [4]
  Ki: 24 nM
CA IX [2]; [5]
  Ki: 24 nM

## Nc1nc(=O)[nH]c2c1c(-c1ccc(Br)cc1)cn2-c1ccc(S(N)(=O)=O)cc1 [B0312]
CA IX [1]; [6]
  Ki: 24 nM
CA IX [2]; read-out: Ki
  Ki: 24 nM

## CCCN(CCC)S(=O)(=O)c1ccc(C(=O)N[C@H](Cc2ccccc2)C(N)=O)cc1 [B0320]
CA IX [1]; [6]
  Ki: 25 nM
CA IX [2]; read-out: Ki
  Ki: 25 nM

## NS(=O)(=O)c1ccc(NC(=S)Nc2ccc(C3c4ccc(O)cc4Oc4cc(O)ccc43)c(C(=O)O)c2)c(F)c1 [B0365]
CA IX [1]; [9]
  Ki: 30 nM
CA IX [2]; [5]
  Ki: 30 nM

## NS(=O)(=O)c1ccc(NC(=S)Nc2ccc(C3c4ccc(O)cc4Oc4cc(O)ccc43)c(C(=O)O)c2)c(Cl)c1 [B0381]
CA IX [1]; [7]
  Ki: 32 nM
CA IX [2]; [8]
  Ki: 32 nM

## CC1=CC(C)C=C(C)N1Cc1ccc(S(N)(=O)=O)cc1 [B0412]
CA IX [1]; [4]
  Ki: 38 nM
CA IX [2]; [5]
  Ki: 38 nM

## NS(=O)(=O)c1ccc(C(=O)OCc2cn([C@@H]3O[C@H](CO)[C@@H](O)[C@@H](O)[C@@H]3O)nn2)cc1 [B0491]
CA IX [1]; [6]
  Ki: 65 nM
CA IX [2]; read-out: Ki
  Ki: 65 nM

## CC(=O)O[C@@H]1O[C@@H](COS(N)(=O)=O)[C@H](OC(C)=O)[C@@H](OC(C)=O)[C@H]1OC(C)=O [B0512]
CA IX [1]; [9]
  Ki: 72.9 nM
CA IX [2]; [5]
  Ki: 73 nM

## CC(=O)OC[C@H]1O[C@H](SCc2nnn(-c3ccc(S(N)(=O)=O)cc3)c2C#CCO)[C@@H](OC(C)=O)[C@H](OC(C)=O)[C@@H]1OC(C)=O [B0570]
CA IX [1]; [4]
  Ki: 91 nM
CA IX [2]; [5]
  Ki: 91 nM

## COc1cccc(/C=C\C(=O)C[C@@H]2O[C@@H](COC(C)=O)[C@@H](OC(C)=O)[C@@H](OC(C)=O)[C@H]2OC(C)=O)c1 [B0574]
CA IX [1]; [7]
  Ki: 92.9 nM
CA IX [2]; [8]
  Ki: 93 nM

## NS(=O)(=O)c1ccc(-n2cc(CO[C@H]3O[C@@H](CO)[C@H](O)[C@H](O)[C@@H]3O)nn2)cc1 [B0594]
CA IX [1]; [6]
  Ki: 101 nM
CA IX [2]; read-out: Ki
  Ki: 101 nM

## COC(=O)[C@H]1O[C@H](SNCc2ccc(S(N)(=O)=O)cc2)[C@@H](OC(C)=O)[C@H](OC(C)=O)[C@H]1OC(C)=O [B0598]
CA IX [1]; [9]
  Ki: 102 nM
CA IX [2]; [5]
  Ki: 102 nM

## CC(=O)OC[C@@H]1O[C@@H](OCc2cn(-c3ccc(S(N)(=O)=O)cc3)nn2)[C@H](OC(C)=O)[C@@H](OC(C)=O)[C@H]1OC(C)=O [B0606]
CA IX [1]; [6]
  Ki: 107 nM
CA IX [2]; read-out: Ki
  Ki: 107 nM

## NS(=O)(=O)c1ccc(-c2cn([C@H]3O[C@H](CO)[C@@H](O[C@@H]4O[C@H](CO)[C@@H](O)[C@H](O)[C@@H]4O)[C@H](O)[C@@H]3O)nn2)cc1 [B0632]
CA IX [1]; [6]
  Ki: 130 nM
CA IX [2]; read-out: Ki
  Ki: 130 nM

## COc1cc(/C=C\C(=O)OCCCCO[N+](=O)[O-])ccc1OC(=O)c1cccc(S(=O)(=O)Nc2nnc(S(N)(=O)=O)s2)c1 [B0659]
CA IX [1]; [6]
  Ki: 177 nM
CA IX [2]; read-out: Ki
  Ki: 177 nM

## Cc1cccc(/C=N/CCc2ccc(S(N)(=O)=O)cc2)c1O [B0709]
CA IX [1]; [6]
  Ki: 295 nM
CA IX [2]; read-out: Ki
  Ki: 295 nM

## NS(=O)(=O)c1ccc(N[C@H]2SC[C@@H](c3ccc(Cl)cc3Cl)N2C2CCCCC2)cc1 [B0713]
CA IX [1]; [9]
  Ki: 342 nM
CA IX [2]; [5]
  Ki: 342 nM

## NS(=O)(=O)c1ccc(C(=O)NCc2cn([C@H]3O[C@@H](CO)[C@H](O)[C@@H](O)[C@@H]3O)nn2)cc1 [B0735]
CA IX [1]; [6]
  Ki: 442 nM
CA IX [2]; read-out: Ki
  Ki: 442 nM

## C[C@H]1O[C@@H](NS(N)(=O)=O)[C@@H](O)[C@H](O)[C@H]1O [B0772]
CA IX [1]; [6]
  Ki: 899 nM
CA IX [2]; read-out: Ki
  Ki: 900 nM

## CC(=O)OC[C@H]1O[C@H](CC(=O)/C=C\c2ccc(O)cc2)[C@@H](OC(C)=O)[C@H](OC(C)=O)[C@@H]1OC(C)=O [B0789]
CA IX [1]; [7]
  Ki: 2900 nM
CA IX [2]; [8]
  Ki: 2900 nM

## COC(=O)[C@@H]1O[C@H](S(N)(=O)=O)[C@@H](OC(C)=O)[C@H](OC(C)=O)[C@@H]1OC(C)=O [B0808]
CA IX [1]; [9]
  Ki: 4150 nM
CA IX [2]; [5]
  Ki: 4150 nM

## Oc1cc(O)c2c(c1)O[C@@H](c1ccc(O)c(O)c1)[C@H](O)C2 [B0819]
CA IX [1]; [7]
  Ki: 5040 nM
CA IX [2]; [8]
  Ki: 5030 nM

## COC(=O)C(=O)[C@H]1C(=O)Nc2ccccc21 [B0865]
CA IX [1]; [9]
  Ki: 8020 nM
CA IX [2]; [5]
  Ki: 8020 nM

## O=C(N/N=C\c1cccc(Br)c1)Nc1nnc(S)s1 [B0891]
CA IX [1]; [7]
  Ki: 10100 nM
CA IX [2]; [8]
  Ki: 10100 nM

## Cc1cc(S(=O)(=O)NC(=N)Nc2ccc(S(N)(=O)=O)cc2)c(SCc2ccccc2)cc1Cl [C94]
[3]
  logkw: 4.050

## Cc1cc(S(=O)(=O)NC(=N)Nc2cccc(S(N)(=O)=O)c2)c(SCc2ccccc2)cc1Cl [C95]
[3]
  logkw: 3.930

## Cc1cc(S(=O)(=O)NC(=N)Nc2ccccc2S(N)(=O)=O)c(SCc2ccccc2)cc1Cl [C96]
[3]
  logkw: 4.090

## Cc1cc(S(=O)(=O)NC(=N)NNc2ccc(S(N)(=O)=O)cc2)c(SCc2ccccc2)cc1Cl [C97]
[3]
  logkw: 4.090

## Cc1cc(S(=O)(=O)NC(=N)Nc2nnc(S(N)(=O)=O)s2)c(SCc2ccccc2)cc1Cl [C99]
[3]
  logkw: 4.070

## Cc1cc(S(=O)(=O)NC(=N)Nc2ccc(S(N)(=O)=O)cc2)c(SCc2cccc(C(F)(F)F)c2)cc1Cl [C100]
[3]
  logkw: 4.530

## Cc1cc(S(=O)(=O)NC(=N)Nc2cccc(S(N)(=O)=O)c2)c(SCc2cccc(C(F)(F)F)c2)cc1Cl [C101]
[3]
  logkw: 4.470

## Cc1cc(S(=O)(=O)NC(=N)Nc2ccccc2S(N)(=O)=O)c(SCc2cccc(C(F)(F)F)c2)cc1Cl [C102]
[3]
  logkw: 4.430

## Cc1cc(S(=O)(=O)NC(=N)Nc2nnc(S(N)(=O)=O)s2)c(SCc2cccc(C(F)(F)F)c2)cc1Cl [C104]
[3]
  logkw: 4.600

## Cc1cc(S(=O)(=O)NC(=N)Nc2ccc(S(N)(=O)=O)cc2)c(SCc2ccc(C(F)(F)F)cc2)cc1Cl [C105]
[3]
  logkw: 4.550
